Laboratory results published in US9730914B2, “3,5-diaminopyrazole kinase inhibitors” (Axikin Pharmaceuticals, Inc., priority 2014, dated 2017).

Assays:
JAK2 = molecular target: T1, JAK2 (Homo sapiens, UniProt O60674); assay: Kinase competition binding assay (Kd, qPCR readout), JAK2; conditions: for Kd: Kd class, JAK2, read-out: JAK2 Activity Level; for RCK:JAK2 selectivity ratio: ratio Kd (JAK2): Kd(RCK)
T1 construct: made in house; host or cells: E. coli BL21-derived host (T7 phage) or HEK-293
Experimental: (§1) For most assays, kinase-tagged T7 phage strains were prepared in an E. coli host derived from the BL21 strain. E. coli were grown to log-phase and infected with T7 phage and incubated with shaking at 32° C. until lysis. The lysates were centrifuged and filtered to remove cell debris. The remaining kinases were produced in HEK-293 cells and subsequently tagged with DNA for quantitative PCR (qPCR) detection.
(§2) Streptavidin-coated magnetic beads were treated with biotinylated small molecule ligands for 30 minutes at room temperature to generate affinity resins for kinase assays. The liganded beads were blocked with excess biotin and washed with blocking buffer (SeaBlock (Pierce), 1% BSA, 0.05% Tween 20, 1 mM DTT) to remove unbound ligand and to reduce nonspecific binding. Binding reactions were assembled by combining kinases, liganded affinity beads, and test compounds in 1× binding buffer (20% SeaBlock, 0.17×PBS, 0.05% Tween 20, 6 mM DTT). All reactions were performed in polystyrene 96-well plates in a final volume of 0.135 mL. The assay plates were incubated at room temperature with shaking for 1 hour and the affinity beads were washed with wash buffer (1×PBS, 0.05% Tween 20). The beads were then re-suspended in elution buffer (1×PBS, 0.05% Tween 20, 0.5 μM non-biotinylated affinity ligand) and incubated at room temperature with shaking for 30 minutes. The kinase concentration in the eluates was measured by qPCR.
(§3) An 11-point 3-fold serial dilution of each test compound was prepared in 100% DMSO at 100× final test concentration and subsequently diluted to 1× in the assay (final DMSO concentration=1%). Most Kd values were determined using a compound top concentration=30,000 nM. If the initial Kd determined was <0.5 nM, (the lowest concentration tested), the measurement was repeated with a serial dilution starting at a lower top concentration. A more detailed description of this assay may be found in Fabian, M. A. et al. Nat. Biotechnol. 2005, 23, 329-336, which is incorporated herein in its entirety.
(§4) The biological results of inhibition of the kinase domain protein of RC kinase (RCK) and JAK2 and JAK3 are summarized in Tables 2 and 3, wherein A represents a Kd of <50 nM; B represents 50 nM<Kd<100 nM; C represents 100 nM<Kd<1000 nM; and D represents a Kd>1000 nM.
Additionally, RCK:JAK2 selectivity, as measured by the ratio Kd (JAK2): Kd(RCK) is represented as follows: A represents Kd (JAK2): Kd (RCK)>100; B represents 10<Kd(JAK2): Kd (RCK)<100; C represents 1<Kd (JAK2): Kd (RCK)<10; and D represents Kd(JAK2): Kd (RCK)<1.

[1] = molecular target: T2, kinase domain protein of RC kinase (RCK) (Homo sapiens, UniProt Q56UN5); assay: Kinase competition binding assay (Kd, qPCR readout), RC kinase; conditions: Kd class, read-out: RCK Activity Level
T2 construct: made in house; host or cells: E. coli BL21-derived host (T7 phage) or HEK-293
T2 sequence (Q56UN5 1061-1324 limits assumed): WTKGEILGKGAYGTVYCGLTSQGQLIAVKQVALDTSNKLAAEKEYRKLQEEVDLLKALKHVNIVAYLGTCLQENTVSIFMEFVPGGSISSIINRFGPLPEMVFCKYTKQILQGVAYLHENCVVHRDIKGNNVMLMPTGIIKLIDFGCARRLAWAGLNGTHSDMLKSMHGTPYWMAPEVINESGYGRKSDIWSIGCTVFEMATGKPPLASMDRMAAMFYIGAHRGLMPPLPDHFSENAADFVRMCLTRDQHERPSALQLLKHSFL
Experimental: as §1, §2, §3, §4

JAK3 = molecular target: T3, JAK3 (Homo sapiens, UniProt P52333); assay: Kinase competition binding assay (Kd, qPCR readout), JAK3; conditions: for Kd: Kd class, JAK3, read-out: JAK3 Activity Level; for RCK:JAK3 selectivity ratio: ratio Kd (JAK3): Kd (RCK)
T3 construct: made in house; host or cells: E. coli BL21-derived host (T7 phage) or HEK-293
Experimental: as §1, §2, §3, §4
Similarly, RCK:JAK3 selectivity, as measured by the ratio Kd (JAK3): Kd (RCK) is represented as follows: A represents Kd (JAK3): Kd (RCK)>100; B represents 10<Kd (JAK3): Kd (RCK)<100; C represents 1<Kd (JAK3): Kd (RCK)<10; and D represents Kd (JAK3): Kd(RCK)<1.

T3 sequence (P52333 811-1124 limits assumed): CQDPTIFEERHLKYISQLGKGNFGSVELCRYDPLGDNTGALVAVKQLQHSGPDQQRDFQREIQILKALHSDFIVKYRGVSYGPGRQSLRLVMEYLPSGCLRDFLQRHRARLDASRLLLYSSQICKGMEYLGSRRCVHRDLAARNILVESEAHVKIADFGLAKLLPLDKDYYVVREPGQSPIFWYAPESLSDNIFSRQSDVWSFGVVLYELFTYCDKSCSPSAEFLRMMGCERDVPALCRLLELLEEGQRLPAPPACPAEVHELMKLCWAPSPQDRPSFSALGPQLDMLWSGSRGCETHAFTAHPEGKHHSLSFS
T1 sequence (O60674 840-1132 limits assumed): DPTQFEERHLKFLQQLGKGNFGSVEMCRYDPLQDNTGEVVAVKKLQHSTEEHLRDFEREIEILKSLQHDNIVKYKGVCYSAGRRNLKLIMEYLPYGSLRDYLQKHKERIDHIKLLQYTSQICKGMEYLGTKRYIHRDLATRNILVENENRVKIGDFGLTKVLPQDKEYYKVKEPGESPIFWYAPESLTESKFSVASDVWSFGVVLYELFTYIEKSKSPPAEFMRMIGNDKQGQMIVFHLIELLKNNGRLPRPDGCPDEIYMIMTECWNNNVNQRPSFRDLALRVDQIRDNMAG

| Compound | Kd (JAK2) | RCK:JAK2 selectivity ratio (JAK2) | Kd [1] | Kd (JAK3) | RCK:JAK3 selectivity ratio (JAK3) |
| --- | --- | --- | --- | --- | --- |
| NC(=O)c1c(Nc2ccc(N3CCN(Cc4ccccc4)CC3)cc2)n[nH]c1NCc1ccc(O)cc1 [reference compound] | < 50 nM | D (D represents Kd(JAK2): Kd (RCK)<1) | < 50 nM | < 50 nM | C (C represents 1<Kd (JAK3): Kd (RCK)<10) |
| Cc1cc(CNc2[nH]nc(Nc3ccc(-c4ccccc4)cc3)c2C(N)=O)cc(C)c1O [Compound 18, 3-([1,1′-biphenyl]-4-ylamino)-5-((4-hydroxy-3,5-dimethylbenzyl)amino)-1H-pyrazole-4-carboxamide] | > 1000 nM | C (C represents 1<Kd (JAK2): Kd (RCK)<10) | > 1000 nM | > 1000 nM | C (C represents 1<Kd (JAK3): Kd (RCK)<10) |
| Cc1cc(CNc2[nH]nc(Nc3ccc(NC(=O)c4ccc(C(F)(F)F)cc4)cc3)c2C(N)=O)cc(C)c1O [Compound 62, 5-((4-hydroxy-3,5-dimethylbenzyl)amino)-3-((4-(4-(trifluoromethyl)benzamido)phenyl)amino)-1H-pyrazole-4-carboxamide] | > 1000 nM | B (B represents 10<Kd(JAK2): Kd (RCK)<100) | 100 to 1000 nM | > 1000 nM | B (B represents 10<Kd (JAK3): Kd (RCK)<100) |
| NC(=O)c1c(Nc2ccc(-c3cccnc3)cc2)n[nH]c1NCc1ccc(O)cc1 [reference compound] | < 50 nM | C (C represents 1<Kd (JAK2): Kd (RCK)<10) | < 50 nM | < 50 nM | C (C represents 1<Kd (JAK3): Kd (RCK)<10) |
| Cc1cc(CNc2[nH]nc(Nc3ccc(C(C)(C)C)cc3)c2C(N)=O)cc(C)c1O [Compound 21, 3-((4-(tert-butyl)phenyl)amino)-5-((4-hydroxy-3,5-dimethylbenzyl)amino)-1H-pyrazole-4-carboxamide] | > 1000 nM | C (C represents 1<Kd (JAK2): Kd (RCK)<10) | > 1000 nM | > 1000 nM |  |
| NC(=O)c1c(Nc2ccc(F)cc2)n[nH]c1NCc1ccc(O)cc1 [reference compound] | < 50 nM | D (D represents Kd(JAK2): Kd (RCK)<1) | < 50 nM | < 50 nM | D (D represents Kd (JAK3): Kd(RCK)<1) |
| Cc1cc(CNc2[nH]nc(Nc3ccc(N4CCOCC4)cc3)c2C(N)=O)cc(C)c1O [Compound 3, 5-((4-hydroxy-3,5-dimethylbenzyl)amino)-3-((4-morpholinophenyl)amino)-1H-pyrazole-4-carboxamide] | 100 to 1000 nM | B (B represents 10<Kd(JAK2): Kd (RCK)<100) | < 50 nM | > 1000 nM | A (A represents Kd (JAK3): Kd (RCK)>100) |
| Cc1cc(CNc2[nH]nc(Nc3ccc(N4C[C@@H](C)O[C@@H](C)C4)cc3)c2C(N)=O)cc(C)c1O [Compound 4, 3-((4-(2,6-dimethylmorpholino)phenyl)amino)-5-((4-hydroxy-3,5-dimethylbenzyl)amino)-1H-pyrazole-4-carboxamide] | > 1000 nM | B (B represents 10<Kd(JAK2): Kd (RCK)<100) | 100 to 1000 nM | > 1000 nM | B (B represents 10<Kd (JAK3): Kd (RCK)<100) |
| Cc1cc(CNc2[nH]nc(Nc3ccc(N4CCC(N5CCC(C)CC5)CC4)cc3)c2C(N)=O)cc(C)c1O [Compound 23, 5-((4-hydroxy-3,5-dimethylbenzyl)amino)-3-((4-(4-methyl-[1,4′-bipiperidin]-1′-yl)phenyl)amino)-1H-pyrazole-4-carboxamide] | > 1000 nM | B (B represents 10<Kd(JAK2): Kd (RCK)<100) | < 50 nM | > 1000 nM | B (B represents 10<Kd (JAK3): Kd (RCK)<100) |
